Results: patent US12280121B2, “Immunoconjugates and methods” (Immunome, Inc., priority 2021, dated 2025)
Structures can show the parent of a compound that is named as a salt.

Experiments:
Jeko-1 = test: CTG assay (CellTiter-Glo cell viability), Jeko-1, payload compounds; type: cell-based; settings: Homo sapiens, JeKo-1; 72 h, CellTiter-Glo; read-out: JeKo-1 IC50
Source text: (§1) The CTG assay is a method of determining the number of viable cells in culture based on quantitation of the ATP present, an indicator of metabolically active cells. The cell assay requires the addition of a single reagent, Cell Titer Glo, in which cells are lysed and generation of a luminescent signal is produced. The luminescent signal is proportional to the amount of ATP present. The amount of ATP is directly proportional to the number of cells present in culture. For our assay, cells were ensured to be in log-phase for either Jeko-1 or MDA-MB-468. Cells were transferred to 96 wells and treated with compounds in three-fold serial dilution starting from 1 μM to 0.0000508 μM (10 points dilution), for 72 h. Cell viability was analyzed with CellTiter-Glo® Luminescent Cell Viability Assay (Promega) following manufactures' instruction. Percentage of viable cells in each compound concentration was determined by normalizing with the luminescence of vehicle control and plotted into percentage of viability versus dose response curve by nonlinear fit in GraphPad Prism software.

[1] = Human hepatocyte clearance (HHEP CL); type: in vitro ADME; parameters: CLint scaled / half-life: dose or concentration left out as unconfirmed; settings: both sexes, human, hepatocytes
Experimental: Suspensions of human hepatocytes (from 10 mixed gender human donors, final concentration 0.5×10^6 cell/mL) in Williams' E medium were incubated for 90 min with a test compound (0.90% acetonitrile and 0.10% DMSO, final concentration […]) and positive controls (7-Ethoxycoumarin, 7-Hydroxycoumarin, 0.90% acetonitrile and 0.10% DMSO, final concentration […]), with constant shaking at about 600 rpm at 37° C. in an incubator at 5% CO2 and 95% humidity. The total volume of incubation was 200 μl. A sample ([…]) was taken out at TO, 15, 30, 60 and 90 min, which was added intermediately to the ice-cold stop solution (acetonitrile with 200 ng/mL of tobutamide and labetalol as internal standard) (125 μl), and vortexed at 500 rpm for 10 min, centrifuged at 3220×g for 20 min at 4° C. Analytical plates are sealed and stored at 4° C. until LCMS analysis. Viability of hepatocytes at pre-incubation was determined to be 84.5%.
(§2) Human liver microsome clearance assay assess metabolism by the cytochrome P450 system (phase I enzymes). These enzymes oxidize substrates by incorporating oxygen atoms into hydrocarbons, thus causing the introduction of hydroxyl groups, or N- O- and S-dealkylation of substrates and forming more polar products easier to be cleared. Human hepatocyte clearance assay measures more broadly the overall cellular metabolism of the test compound (phase I and phase II enzyme pathways). Phase II enzymes catalyze the conjugation reaction of xenobiotic metabolites and charged species, such as glutathione, sulfate, glycine, or glucuronic acid to form even more polar compounds for easier clearance.

[2] = Human liver microsome clearance (HLM CL); type: in vitro ADME; settings: human, microsomes
Experimental: Working solution was prepared by adding 5 μL of compound and control stock solution (10 mM in dimethyl sulfoxide, DMSO) to 495 μL of acetonitrile (ACN) (intermediate solution concentration: 100 μM, 99% CAN and 1% DMSO. The appropriate concentrations of microsome working solutions were prepared in 100 mM potassium phosphate buffer. After reaction plates containing mixtures of compound and microsomes were pre-incubated at 37° C. for 10 min, […] of 2 mM of NADPH and 2 mM of MgCl2 solution was added to start the reaction. The final concentrations of incubation medium were as follows: microsome—0.5 mg protein/mL, test compound/control […], NADPH—1 mM, MgCl2 —1 mM, acetonitrile 0.99%, DMSO 0.01%. Incubations were performed at 37° C. for 60 min. Samples were taken out at TO, T5, T15, T30, T45 and T60, which was added intermediately to the ice-cold stop solution (acetonitrile with 200 ng/mL of tobutamide and labetalol as internal standard) (125 μl), shaken for 10 min, centrifuged at 4000 rpm for 20 min at 4° C. Analytical plates were analyzed by LCMS.
as §2

MDA-MB-468 = test: CTG assay (CellTiter-Glo cell viability), MDA-MB-468, payload compounds; type: cell-based; settings: Homo sapiens, MDA-MB-468; 72 h, CellTiter-Glo; read-out: MDA-MB-468 IC50
Source text: as §1

[3] = PAMPA (Parallel Artificial Membrane Permeability Assay); type: physicochemical
Source text: PAMPA is a method which determines the permeability of substances from a donor compartment, through a lipid-infused artificial membrane into an acceptor compartment. See Ottaviani, G.; Martel, S.; Carrupt, P-A. “Parallel Artificial Membrane Permeability Assay: A New Membrane for the Fast Prediction of Passive Human Skin Permeability”, Journal of Medicinal Chemistry, 2006, 49 (13), 3948-3954). A multi-well microtitre plate is used for the donor and a membrane/acceptor compartment is placed on top; the whole assembly is commonly referred to as a “sandwich”. At the beginning of the test, the drug is added to the donor compartment, and the acceptor compartment is drug-free. After an incubation period which may include stirring, the sandwich is separated, and the amount of drug is measured in each compartment. Mass balance allows calculation of drug that remains in the membrane.
The PAMPA was performed by Pion Inc using the GIT-0 lipid and 5 μM donor solution in pH 5.0 and pH 7.4 PRISMA buffer (containing 0.05% DMSO). The higher PAMPA data has been associated with better bystander killing. (Ogitani Y.; Hagihara K.; Oitate, M.; Naito, H.; Agatsuma T. “Bystander killing effect of DS-8201a, a novel anti-human epidermal growth factor receptor 2 antibody-drug conjugate, in tumors with human epidermal growth factor receptor 2 heterogeneity” Cancer Science, 2016, 107 (7), 1039-1046).

| SMILES | IC50 (Jeko-1) | CLint scaled [1] | half-life [1] | CLint scaled [2] | half-life [2] | IC50 (MDA-MB-468) | Papp at 5 μM ([3]; pH 5) | Papp at 5 μM ([3]; pH 7.4) | PAMPA Pe (10^−6 cm/s) pH 5.0 ([3]; 5 μM, pH 5) |
| --- | --- | --- | --- | --- | --- | --- | --- | --- | --- |
| CC[C@@]1(O)C(=O)OCc2c1cc1n(c2=O)Cc2c-1nc1cc(F)c(C)c3c1c2[C@H](O)CC3 (single isomer, unassigned) [Compound 3-34] | 0.59 nM | 79.2 mL/min/kg | 48.7 min | 32.1 mL/min/kg | 38.8 min | 6 nM | 78.3 ×10⁻⁶ cm/s | 8.2 ×10⁻⁶ cm/s | – |
| CC[C@@]1(O)C(=O)OCc2c1cc1n(c2=O)Cc2c-1nc1cc(F)c(C)c3c1c2[C@@H](O)CC3 (single isomer, unassigned) [Compound 3-35] | 0.46 nM | 50.4 mL/min/kg | 76.5 min | 20.2 mL/min/kg | 61.8 min | 4.7 nM | 66.1 ×10⁻⁶ cm/s | 11.1 ×10⁻⁶ cm/s | – |
| CC[C@@]1(O)C(=O)OCc2c1cc1n(c2=O)Cc2c-1nc1cc(F)c(C)c3c1c2[C@H](OCCO)CC3 (single isomer, unassigned) [Compound 5-47] | 1.5 nM | 53.7 mL/min/kg | 71.7 min | 17.3 mL/min/kg | 72.2 min | 6.3 nM | – | 11.6 ×10⁻⁶ cm/s | 76/.1 10^−6 cm/s |
| CC[C@@]1(O)C(=O)OCc2c1cc1n(c2=O)Cc2c-1nc1cc(F)c(C)c3c1c2[C@@H](N)CCC3 (single isomer, unassigned) [Compound 7-59, methanesulfonate] | 2.9 nM | 69.4 mL/min/kg | 55.5 min | 33.7 mL/min/kg | 37 min | 14.8 nM | – | – | – |
| CC[C@@]1(O)C(=O)OCc2c1cc1n(c2=O)Cc2c-1nc1cc(F)c(C)c3c1c2[C@H](N)CCC3 (single isomer, unassigned) [Compound 7-60, methanesulfonate] | 2.1 nM | 64.5 mL/min/kg | 59.7 min | 40.8 mL/min/kg | 30.6 min | 14.9 nM | – | – | – |
| CC[C@@]1(O)C(=O)OCc2c1cc1n(c2=O)Cc2c-1nc1cc(F)c(C)c3c1c2[C@@](C)(N)CC3 (single isomer, unassigned) [Compound 8-71, hydrochloride] | 0.44 nM | 81.7 mL/min/kg | 47 min | 41.9 mL/min/kg | 30 min | 6.1 nM | 67.7 ×10⁻⁶ cm/s | 8.6 ×10⁻⁶ cm/s | – |
| CC[C@@]1(O)C(=O)OCc2c1cc1n(c2=O)Cc2c-1nc1cc(F)c(C)c3c1c2[C@](C)(N)CC3 (single isomer, unassigned) [Compound 8-72, hydrochloride] | 1.5 nM | 79.1 mL/min/kg | 49 min | 35.9 mL/min/kg | 35 min | 7.7 nM | 80.8 ×10⁻⁶ cm/s | 8.4 ×10⁻⁶ cm/s | – |
| CC[C@@]1(O)C(=O)OCc2c1cc1n(c2=O)Cc2c-1nc1cc(F)c(C)c3c1c2[C@@](C)(O)CC3 (single isomer, unassigned) [Compound 13-84] | 0.61 nM | 112 mL/min/kg | 34 min | 58.9 mL/min/kg | 21 min | 5.9 nM | 64.4 ×10⁻⁶ cm/s | 7.6 ×10⁻⁶ cm/s | – |
| CC[C@@]1(O)C(=O)OCc2c1cc1n(c2=O)Cc2c-1nc1cc(F)c(C)c3c1c2[C@](C)(O)CC3 (single isomer, unassigned) [Compound 13-85] | 2.6 nM | 75.7 mL/min/kg | 51 min | 58.3 mL/min/kg | 21 min | 36.2 nM | 69.7 ×10⁻⁶ cm/s | 6 ×10⁻⁶ cm/s | – |
| CC[C@@]1(O)C(=O)OCc2c1cc1n(c2=O)Cc2c-1nc1cc(F)c(C)c3c1c2[C@@](C)(OCCO)CC3 (single isomer, unassigned) [Compound 14-91] | 1.4 nM | 63.4 mL/min/kg | 60.8 min | 46.5 mL/min/kg | 26.8 min | 17.6 nM | 67.8 ×10⁻⁶ cm/s | 5.6 ×10⁻⁶ cm/s | – |
| CC[C@@]1(O)C(=O)OCc2c1cc1n(c2=O)Cc2c-1nc1cc(F)c(C)c3c1c2[C@](C)(OCCO)CC3 (single isomer, unassigned) [Compound 14-92] | 1.2 nM | 51.3 mL/min/kg | 75.1 min | 19.2 mL/min/kg | 65 min | 14.2 nM | 69.1 ×10⁻⁶ cm/s | 4.5 ×10⁻⁶ cm/s | – |
| CC[C@@]1(O)C(=O)OCc2c1cc1n(c2=O)Cc2c-1nc1cc(F)c(C)c3c1c2[C@](C)(NC(=O)CO)CC3 [Compound 10-75, N-((1R,9S)-9-ethyl-5-fluoro-9-hydroxy-1,4-dimethyl-10,13-dioxo-1,2,3,9,10,12,13,15-octahydrobenzo[de]pyrano[3′,4′:6,7]indolizino[1,2-b]quino-lin-1-yl)-2-hydroxyacetamide] | 58.1 nM | 40.8 mL/min/kg | 94.4 min | 27.2 mL/min/kg | 45.9 min | 467 nM | 46.8 ×10⁻⁶ cm/s | 3.9 ×10⁻⁶ cm/s | – |
